{
  "source": "paper PMC7845594",
  "about": "“Novel Immune Modulators Enhance Caenorhabditis elegans Resistance to Multiple Pathogens” (mSphere, 2021)",
  "key": {"[1]": {"test_system": "P. aeruginosa strain PA14", "experiment": "MIC assay (bacterial growth, no worms)", "assay_type": "cell-based, Pseudomonas aeruginosa", "method_in_brief": "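PA14 was grown in static culture with serial 2-fold compound dilutions, without worms, for 24 h at 37°C. MIC was scored visually by turbidity. At least three biological replicates were run.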"}, "[2]": {"test_system": "C. elegans transcriptome", "experiment": "Transcriptome profiling (Affymetrix microarrays), differentially expressed genes", "assay_type": "in vivo, Caenorhabditis elegans", "conditions": "downregulated genes", "method_in_brief": "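Wild-type young-adult C. elegans (~6,000 per condition, triplicate) were exposed to each drug at 100 µM or to DMSO for 8 h without pathogen. TRIzol/RNeasy RNA was profiled on Affymetrix arrays. Fold changes were normalized to each gene's mean across conditions and clustered by Euclidean distance with average linkage.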"}},
  "data": [
    {"molecule": "O=c1cc(CNc2ccc(Br)cc2)nc2sccn12", "note": "[LK56]", "values": [
      {"measurement": "MIC", "setting": "[1]; Pseudomonas aeruginosa, P. aeruginosa PA14, LB media, static culture, no worms, read-out: MIC", "result": "> 595", "unit": "µM"},
      {"measurement": "MIC / EC", "setting": "[1]; ratio of MIC to EC, P. aeruginosa PA14", "result": "> 81.5"},
      {"measurement": "Fold Change", "setting": "[2]; Gene F37C12.7, Affy_ID 174751_at", "result": 0.2156},
      {"measurement": "Fold Change", "setting": "[2]; Gene R11.4, Affy_ID 177194_at", "result": 0.488},
      {"measurement": "Fold Change", "setting": "[2]; Gene Y92C3B.2, Affy_ID 175744_s_at", "result": 0.43}
    ]}
  ]
}
